Test results as given in PubChem BioAssay AID192 (DTP/NCI, 2004).
Where “and” joins values, the source holds several entries; their conditions need not be identical. Equal values may be shown once. Toxic doses and inconclusive results are not listed. Rule for the calls: active = survival T/C of 150% or more; inactive = T/C below 125% in these data.

System: BDF1 mice, B16 melanoma ip, median survival T/C
Assay: NCI In Vivo Anticancer Drug Screen. Data for tumor model B16 Melanoma (intraperitoneal) in B6D2F1 (BDF1) mice
Conditions: endpoint: median survival time, higher = longer survival
Procedure, shortened: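 Each result divides a survival or tumor-size measurement in the compound-treated group by the same measurement in the vehicle group.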

[1] = dose: 25.0 mg/kg/injection, schedule: Q01DX009 (ip), vehicle: Klucel (hydroxypropylcellulose) (HPC)
[2] = dose: 50.0 mg/kg/injection, schedule: Q01DX009 (ip), vehicle: Klucel (hydroxypropylcellulose) (HPC)
[3] = dose: 100.0 mg/kg/injection, schedule: Q01DX009 (ip), vehicle: Klucel (hydroxypropylcellulose) (HPC)
[4] = dose: 6.25 mg/kg/injection, schedule: Q01DX009 (ip), vehicle: Klucel (hydroxypropylcellulose) (HPC)
[5] = dose: 12.5 mg/kg/injection, schedule: Q01DX009 (ip), vehicle: Klucel (hydroxypropylcellulose) (HPC)
[6] = dose: 100.0 mg/kg/injection, schedule: Q01DX009 (ip), vehicle: saline with Tween-80
[7] = dose: 200.0 mg/kg/injection, schedule: Q01DX009 (ip), vehicle: Klucel (hydroxypropylcellulose) (HPC)

Measured: T/C

O=NN(CCCl)C(=O)NC1OC(CO)C(O)C(O)C1O (stereo not drawn)
active: dose: 1.25 mg/kg/injection, schedule: Q01DX009 (ip), vehicle: saline 178 % of control | dose: 2.5 mg/kg/injection, schedule: Q01DX009 (ip), vehicle: saline 188 % of control | dose: 5.0 mg/kg/injection, schedule: Q01DX009 (ip), vehicle: saline 193 % of control
inactive: dose: 0.16 mg/kg/injection, schedule: Q01DX009 (ip), vehicle: saline 107 % of control | dose: 0.31 mg/kg/injection, schedule: Q01DX009 (ip), vehicle: saline 111 % of control and 116 % of control | dose: 0.62 mg/kg/injection, schedule: Q01DX009 (ip), vehicle: saline 108 % of control

Cc1oc2c(c(=O)c1C)C1CCC(C2)N1C (stereo not drawn)
inactive: [1] 103 % of control | [2] 103 % of control | [3] 97 % of control

Cc1cnc(/C=N\NC(N)=S)c2cccc(N)c12
inactive: dose: 3.12 mg/kg/injection, schedule: Q01DX009 (ip), vehicle: saline with Tween-80 100 % of control | dose: 3.13 mg/kg/injection, schedule: Q01DX009 (ip), vehicle: Klucel (hydroxypropylcellulose) (HPC) 102 % of control | dose: 3.13 mg/kg/injection, schedule: Q01DX009 (ip), vehicle: saline with Tween-80 114 % of control | [4] 114 % of control | dose: 6.25 mg/kg/injection, schedule: Q01DX009 (ip), vehicle: saline with Tween-80 103 % of control and 124 % of control | [5] 115 % of control

Cc1cc(NCCCCCCNc2cc(C)nc3ccc(N)cc23)c2cc(N)ccc2n1
inactive: dose: 2.25 mg/kg/injection, schedule: Q01DX009 (ip), vehicle: saline with Tween-80 104 % of control | dose: 4.5 mg/kg/injection, schedule: Q01DX009 (ip), vehicle: saline with Tween-80 102 % of control | dose: 9.0 mg/kg/injection, schedule: Q01DX009 (ip), vehicle: saline with Tween-80 104 % of control | dose: 18.0 mg/kg/injection, schedule: Q01DX009 (ip), vehicle: saline with Tween-80 122 % of control

COc1ccc(OC)c(C2N(Cc3ccccc3N(C)C)CCCN2Cc2ccccc2N(C)C)c1
inactive: dose: 25.0 mg/kg/injection, schedule: Q01DX009 (ip), vehicle: saline with Tween-80 102 % of control | dose: 50.0 mg/kg/injection, schedule: Q01DX009 (ip), vehicle: saline with Tween-80 93 % of control | [6] 90 % of control

COC(=O)C12Oc3ccc(-c4ccc5c(c4O)C(O)=C4C(=O)CC(C)C(O)C4(C(=O)OC)O5)c(O)c3C(O)=C1C(=O)CC(C)C2O (stereo not drawn)
inactive: dose: 0.15 mg/kg/injection, schedule: Q01DX009 (ip), vehicle: saline with Tween-80 98 % of control | dose: 0.31 mg/kg/injection, schedule: Q01DX009 (ip), vehicle: saline with Tween-80 93 % of control | dose: 0.62 mg/kg/injection, schedule: Q01DX009 (ip), vehicle: saline with Tween-80 104 % of control | dose: 1.25 mg/kg/injection, schedule: Q01DX009 (ip), vehicle: saline with Tween-80 95 % of control

CS(=O)(=O)c1ccnc2ccccc12
inactive: [2] 91 % of control | [3] 90 % of control

CCO
inactive: dose: 250.0 mg/kg/injection, schedule: Q01DX009 (ip), vehicle: saline 109 % of control | dose: 500.0 mg/kg/injection, schedule: Q01DX009 (ip), vehicle: saline 86 % of control | dose: 1000.0 mg/kg/injection, schedule: Q01DX009 (ip), vehicle: saline 104 % of control | dose: 2000.0 mg/kg/injection, schedule: Q01DX009 (ip), vehicle: saline 93 % of control

c1cc(NC2CCCCC2)ccc1CN1CCOCC1
inactive: dose: 12.5 mg/kg/injection, schedule: Q01DX009 (ip), vehicle: saline + Tween-80 + alcohol 100 % of control and 104 % of control | dose: 25.0 mg/kg/injection, schedule: Q01DX009 (ip), vehicle: saline + Tween-80 + alcohol 91 % of control and 102 % of control | dose: 50.0 mg/kg/injection, schedule: Q01DX009 (ip), vehicle: saline + Tween-80 + alcohol 91 % of control and 97 % of control | dose: 100.0 mg/kg/injection, schedule: Q01DX009 (ip), vehicle: saline + Tween-80 + alcohol 88 % of control and 97 % of control | dose: 200.0 mg/kg/injection, schedule: Q01DX009 (ip), vehicle: saline + Tween-80 + alcohol 88 % of control and 89 % of control | dose: 400.0 mg/kg/injection, schedule: Q01DX009 (ip), vehicle: saline + Tween-80 + alcohol 95 % of control

COC1CCCCC1SCSC1CCCCC1OC (stereo not drawn)
inactive: [6] 105 % of control | dose: 200.0 mg/kg/injection, schedule: Q01DX009 (ip), vehicle: saline with Tween-80 102 % of control | dose: 400.0 mg/kg/injection, schedule: Q01DX009 (ip), vehicle: saline with Tween-80 105 % of control

CC1CCC2(C)CCC3(C)C(=CCC4C5(C)CCC(O)C(C)(C)C5CCC43C)C2C1C (stereo not drawn)
inactive: [2] 99 % of control | [3] 97 % of control | [7] 90 % of control

CCOC(=O)C1CC(c2ccccc2)=NN1c1ccccc1 (stereo not drawn)
inactive: [2] 97 % of control | [3] 104 % of control | [7] 100 % of control | dose: 400.0 mg/kg/injection, schedule: Q01DX009 (ip), vehicle: Klucel (hydroxypropylcellulose) (HPC) 97 % of control

Cc1[nH]c(=O)[nH]c(=O)c1N(CCF)CCCl
inactive: dose: 1.8 mg/kg/injection, schedule: Q01DX009 (ip), vehicle: saline with Tween-80 110 % of control | dose: 3.0 mg/kg/injection, schedule: Q01DX009 (ip), vehicle: saline with Tween-80 110 % of control | dose: 5.0 mg/kg/injection, schedule: Q01DX009 (ip), vehicle: Klucel (hydroxypropylcellulose) (HPC) 100 % of control | dose: 8.0 mg/kg/injection, schedule: Q01DX009 (ip), vehicle: acid diluted with saline 123 % of control | dose: 16.0 mg/kg/injection, schedule: Q01DX009 (ip), vehicle: saline with Tween-80 121 % of control | dose: 16.0 mg/kg/injection, schedule: Q04DX003 (ip), vehicle: acid diluted with saline 107 % of control | dose: 16.0 mg/kg/injection, schedule: Q04DX003 (ip), vehicle: saline with Tween-80 123 % of control | dose: 32.0 mg/kg/injection, schedule: Q04DX003 (ip), vehicle: acid diluted with saline 118 % of control
active: dose: 14.0 mg/kg/injection, schedule: Q01DX009 (ip), vehicle: saline with Tween-80 165 % of control | dose: 32.0 mg/kg/injection, schedule: Q04DX003 (ip), vehicle: saline with Tween-80 180 % of control

CC(C)Cc1ccc(C(=O)O)cc1
inactive: dose: 75.0 mg/kg/injection, schedule: Q04DX003 (ip), vehicle: Klucel (hydroxypropylcellulose) (HPC) 102 % of control | dose: 150.0 mg/kg/injection, schedule: Q04DX003 (ip), vehicle: Klucel (hydroxypropylcellulose) (HPC) 105 % of control | dose: 300.0 mg/kg/injection, schedule: Q04DX003 (ip), vehicle: Klucel (hydroxypropylcellulose) (HPC) 111 % of control

COc1cc2cc(c1Cl)N(C)C(=O)CC(OC(=O)C(C)N(C)C(=O)C(C)C)C1(C)OC1C(C)C1CC(O)(NC(=O)O1)C(OC)/C=C/C=C(C)C2 (stereo not drawn)
active: dose: 5.0 micrograms/kg/injection, schedule: Q01DX009 (ip), vehicle: saline + alcohol 171 % of control | dose: 10.0 micrograms/kg/injection, schedule: Q01DX009 (ip), vehicle: saline + alcohol 177 % of control

Cc1cccc(C)c1N.[C-]#[O+].[C-]#[O+].[C-]#[O+].[Cr]
inactive: [4] 103 % of control | [5] 100 % of control | [1] 100 % of control and 112 % of control

CCCCNC(=O)Nc1ccc(CC)cc1
inactive: [3] 100 % of control | [7] 91 % of control
